How the values of data set [1] were obtained:
The remainder of the hydrolyzed seed mash (100 g-0.79 g) was partitioned into a total of 400 ml EtOAc, by vigorous stirring and shaking. The mixture was then allowed to settle in a large graduate cylinder, the upper 100 ml was removed and evaporated under vacuum. […] This oil was then vortexed (1 g volume per 100 ml of water), then allowed to re-equilibrate into two phases, filtered, and the aqueous phase used for HPLC determination of sulforaphane content as described above.
This is another data set of the same source.

Turning to `C[S+]([O-])CCCCN=C=S` (centres unmarked) [sulforaphane, 4-methylsulfinylbutyl isothiocyanate], the “partition in biphasic mixture of ethyl acetate and water” value (pure sulforaphane spiked into ethyl acetate/water) is “partitions to the organic fraction”. Moreover, the “partition in biphasic mixture of hexane and water” value (pure sulforaphane spiked into hexane/water) is on record as “partitions to the aqueous fraction”. In addition, the solubility in oil entry in data set [1] (broccoli seed oil) is recorded as “oil soluble”. Moreover, the solubility in hexane result in data set [1] (hexane) was “not soluble”. In addition, the solubility in water entry in data set [1] (water, back-extraction of the oil) was “reasonable solubility”.

Values taken from US20060127996A1, “Method of extraction of isothiocyanates into oil from glucosinolate-containing plants and method of producing products with oil containing isothiocyanates extracted from glucosinolate-containing plants” (Johns Hopkins University, priority 2004, published 2006).
